The assay deals with BDF1 mice, Adenocarcinoma 755 s.c., tumor weight T/C. As to the kind of experiment: NCI In Vivo Anticancer Drug Screen. Data for tumor model Adenocarcinoma 755 (subcutaneous) in B6D2F1 (BDF1) mice. The note with it: endpoint: mean tumor weight, higher = larger tumour. The procedure, abridged: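 Compound activity was tested in mice carrying transplanted tumors. Survival or tumor size was measured, and each value is the treated-group measurement divided by that of the vehicle-treated control group (T/C).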

Where [1] appears, read: dose: 1.0 mg/kg/injection, schedule: Q01DX011 (ip), vehicle: saline.
Where [2] appears, read: dose: 100.0 mg/kg/injection, schedule: Q01DX011 (sc), vehicle: steriod suspending solution.
Where [3] appears, read: dose: 30.0 mg/kg/injection, schedule: Q01DX011 (ip), vehicle: carboxymethylcellulose (CMC).
Where [4] appears, read: dose: 60.0 mg/kg/injection, schedule: Q01DX011 (ip), vehicle: carboxymethylcellulose (CMC).
[5] abbreviates: dose: 120.0 mg/kg/injection, schedule: Q01DX011 (ip), vehicle: carboxymethylcellulose (CMC).
[6] abbreviates: dose: 240.0 mg/kg/injection, schedule: Q01DX011 (ip), vehicle: carboxymethylcellulose (CMC).
Where [7] appears, read: dose: 400.0 mg/kg/injection, schedule: Q01DX011 (ip), vehicle: carboxymethylcellulose (CMC).
Setting [8] is: dose: 500.0 mg/kg/injection, schedule: Q01DX011 (sc), vehicle: steriod suspending solution.

“And” between values parts separate entries of the source, which are not always exact repeats. Equal values may be shown once.

A word on the T/C: it is the result in the treated group divided by that in the control group, in per cent. For the compound `COC(C(=O)C(O)C(C)O)C1Cc2cc3cc(OC4CC(OC(C)=O)C(OC5CC(O)C(OC)C(C)O5)C(C)O4)cc(O)c3c(O)c2C(=O)C1OC1CC(OC2CC(OC3CC(C)(O)C(OC(=O)C(C)C)C(C)O3)C(O)C(C)O2)C(O)C(C)O1` (stereo unspecified), the T/C was 93 % of control (dose: 0.02 mg/kg/injection, schedule: Q01DX011 (ip), vehicle: carboxymethylcellulose (CMC)); 93 % of control (dose: 0.04 mg/kg/injection, schedule: Q01DX011 (ip), vehicle: carboxymethylcellulose (CMC)); 52 % of control (dose: 0.08 mg/kg/injection, schedule: Q01DX011 (ip), vehicle: carboxymethylcellulose (CMC)); 114 % of control (dose: 0.15 mg/kg/injection, schedule: Q01DX011 (ip), vehicle: saline); 14 % of control and 39 % of control (dose: 0.16 mg/kg/injection, schedule: Q01DX011 (ip), vehicle: carboxymethylcellulose (CMC)); 66 % of control (dose: 0.33 mg/kg/injection, schedule: Q01DX011 (ip), vehicle: saline). Moreover, the T/C by setting is: (dose: 0.66 mg/kg/injection, schedule: Q01DX011 (ip), vehicle: saline) 54 % of control; (dose: 1.25 mg/kg/injection, schedule: Q01DX011 (ip), vehicle: saline) 8 % of control and 11 % of control; (dose: 2.5 mg/kg/injection, schedule: Q01DX011 (ip), vehicle: saline) 2 % of control and 3 % of control.

Take `OC1C(O)C(O)C2(CO2)C(O)C1O` (stereo unspecified): where the note is “dose: 300.0 mg/kg/injection, schedule: Q01DX011 (ip), vehicle: saline”, the T/C is 99 % of control.

Consider `CCCCCCCCOP(=O)(N1CC1)N1CC1`, for which the T/C by setting is: (dose: 0.1 mg/kg/injection, schedule: Q01DX011 (ip), vehicle: saline) 75 % of control and 79 % of control; (dose: 0.2 mg/kg/injection, schedule: Q01DX011 (ip), vehicle: saline) 65 % of control and 80 % of control; under setting [1], 29 % of control; (dose: 2.0 mg/kg/injection, schedule: Q01DX011 (ip), vehicle: saline) 57 % of control and 66 % of control; (dose: 4.5 mg/kg/injection, schedule: Q01DX011 (ip), vehicle: saline) 56 % of control and 66 % of control.

With `CC(=O)O[C@]1(C(C)=O)CC[C@H]2[C@@H]3C[C@H](C)C4=CC(=O)CC[C@]4(C)[C@H]3CC[C@@]21C`, the T/C reads like this: under setting [2], 89 % of control; (dose: 300.0 mg/kg/injection, schedule: Q01DX011 (sc), vehicle: steriod suspending solution) 78 % of control.

With `CC(=O)OCC1OC(n2cnc3c(=O)[nH]cnc32)C(OC(C)=O)C1OC(C)=O` (stereo unspecified), the T/C was 55 % of control under setting [3]; 65 % of control under setting [4]; 80 % of control under setting [5]; 67 % of control under setting [6]; 110 % of control under setting [7]; 117 % of control (dose: 600.0 mg/kg/injection, schedule: Q01DX011 (ip), vehicle: carboxymethylcellulose (CMC)).

On to `Nc1nc(Br)c2ncn(C3OC(CO)C(O)C3O)c2n1` (stereo unspecified), for which the T/C reads like this: under setting [3], 107 % of control; under setting [4], 86 % of control; under setting [5], 106 % of control; under setting [6], 103 % of control.

Turning to `CCCCCCSc1ncnc2nc[nH]c12`, the T/C runs as follows: (dose: 31.0 mg/kg/injection, schedule: Q01DX011 (ip), vehicle: other) 93 % of control; (dose: 62.0 mg/kg/injection, schedule: Q01DX011 (ip), vehicle: other) 35 % of control; (dose: 125.0 mg/kg/injection, schedule: Q01DX011 (ip), vehicle: other) 2 % of control; (dose: 250.0 mg/kg/injection, schedule: Q01DX011 (ip), vehicle: other) 1 % of control; (dose: 300.0 mg/kg/injection, schedule: Q01DX010 (ip), vehicle: other) 5 % of control; (dose: 400.0 mg/kg/injection, schedule: Q01DX010 (ip), vehicle: other) 3 % of control.

Turning to `C[C@H]1C[C@@H]2[C@H]([C@@H](O)C[C@@]3(C)[C@H]2CC[C@]3(O)C(=O)CF)[C@@]2(C)C=CC(=O)C=C12`, the T/C reads like this: (dose: 2.5 mg/kg/injection, schedule: Q01DX011 (sc), vehicle: steriod suspending solution) 82 % of control; (dose: 5.0 mg/kg/injection, schedule: Q01DX011 (sc), vehicle: steriod suspending solution) 57 % of control; (dose: 10.0 mg/kg/injection, schedule: Q01DX011 (sc), vehicle: steriod suspending solution) 48 % of control; (dose: 21.0 mg/kg/injection, schedule: Q01DX011 (sc), vehicle: steriod suspending solution) 64 % of control; (dose: 25.0 mg/kg/injection, schedule: Q01DX011 (sc), vehicle: steriod suspending solution) 91 % of control; (dose: 42.0 mg/kg/injection, schedule: Q01DX011 (sc), vehicle: saline) 39 % of control. The T/C is 12 % of control and 25 % of control (2×) (dose: 42.0 mg/kg/injection, schedule: Q01DX011 (sc), vehicle: steriod suspending solution); 59 % of control (dose: 50.0 mg/kg/injection, schedule: Q01DX011 (sc), vehicle: steriod suspending solution); 61 % of control (dose: 84.0 mg/kg/injection, schedule: Q01DX011 (sc), vehicle: saline); 9 % of control (dose: 84.0 mg/kg/injection, schedule: Q01DX011 (sc), vehicle: steriod suspending solution); 55 % of control under setting [2]; 19 % of control (dose: 168.0 mg/kg/injection, schedule: Q01DX011 (sc), vehicle: saline). For the same compound, the T/C (dose: 168.0 mg/kg/injection, schedule: Q01DX011 (sc), vehicle: steriod suspending solution) was 1 % of control; the T/C (dose: 200.0 mg/kg/injection, schedule: Q01DX011 (sc), vehicle: steriod suspending solution) was 57 % of control; the T/C (dose: 336.0 mg/kg/injection, schedule: Q01DX011 (sc), vehicle: saline) is 19 % of control; the T/C (dose: 400.0 mg/kg/injection, schedule: Q01DX011 (sc), vehicle: steriod suspending solution) was 23 % of control; the T/C under setting [8] was 39 % of control; the T/C (dose: 600.0 mg/kg/injection, schedule: Q01DX011 (sc), vehicle: steriod suspending solution) was 37 % of control. Moreover, for the setting “dose: 700.0 mg/kg/injection, schedule: Q01DX011 (sc), vehicle: steriod suspending solution”, the T/C is 17 % of control.

Regarding `CCCCN(C)N=Nc1ccc(S(N)(=O)=O)cc1`, the T/C (dose: 4.0 mg/kg/injection, schedule: Q01DX011 (ip), vehicle: carboxymethylcellulose (CMC)) was 91 % of control; the T/C (dose: 8.0 mg/kg/injection, schedule: Q01DX011 (ip), vehicle: carboxymethylcellulose (CMC)) was 90 % of control and 77 % of control; the T/C (dose: 31.0 mg/kg/injection, schedule: Q01DX011 (ip), vehicle: carboxymethylcellulose (CMC)) was 33 % of control; the T/C (dose: 32.0 mg/kg/injection, schedule: Q01DX011 (ip), vehicle: carboxymethylcellulose (CMC)) is 108 % of control and 84 % of control; the T/C (dose: 62.0 mg/kg/injection, schedule: Q01DX011 (ip), vehicle: carboxymethylcellulose (CMC)) was 42 % of control; the T/C (dose: 93.0 mg/kg/injection, schedule: Q01DX011 (ip), vehicle: carboxymethylcellulose (CMC)) is 55 % of control.

For `C[C@]12CC[C@H](OC3OC(CO)C(O)C(O)C3O)C[C@H]1CC[C@@H]1[C@@H]2CC[C@]2(C)[C@@H](C3=CCOC3=O)CC[C@]12O` (stereo partly specified), the T/C was 34 % of control (dose: 0.13 mg/kg/injection, schedule: Q01DX011 (ip), vehicle: saline); 35 % of control (dose: 0.25 mg/kg/injection, schedule: Q01DX011 (ip), vehicle: saline); 22 % of control and 44 % of control (dose: 0.5 mg/kg/injection, schedule: Q01DX011 (ip), vehicle: saline); 3 % of control under setting [1].

For the compound `CN(C)c1nc(N)c2ncn(C3OC(CO)C(O)C3O)c2n1` (stereo unspecified), the T/C (dose: 31.0 mg/kg/injection, schedule: Q01DX011 (ip), vehicle: methylcellulose (MC)) is 80 % of control and the T/C (dose: 125.0 mg/kg/injection, schedule: Q01DX011 (ip), vehicle: methylcellulose (MC)) was 74 % of control.

Regarding `COc1ccccc1NC(=O)CSC(N)=O`, the T/C was 106 % of control (dose: 50.0 mg/kg/injection, schedule: Q01DX011 (ip), vehicle: methylcellulose (MC)) and 5 % of control under setting [7].

Regarding `CC(=O)[C@H]1CC[C@H]2[C@@H]3CCC4=CC(=O)CC[C@]4(C)[C@H]3CC[C@]12C`, the T/C is, setting by setting: (dose: 250.0 mg/kg/injection, schedule: Q01DX011 (sc), vehicle: steriod suspending solution) 97 % of control; under setting [8], 46 % of control.

As for `O=C(O)CCc1c[nH]c2ccc(N(CCCl)CCCl)cc12`, the T/C is 90 % of control (dose: 1.2 mg/kg/injection, schedule: Q01DX011 (ip), vehicle: carboxymethylcellulose (CMC)); 64 % of control (dose: 2.5 mg/kg/injection, schedule: Q01DX011 (ip), vehicle: carboxymethylcellulose (CMC)); 74 % of control (dose: 5.0 mg/kg/injection, schedule: Q01DX011 (ip), vehicle: carboxymethylcellulose (CMC)).

The values above are taken from PubChem BioAssay AID180 (DTP/NCI, 2004).
